According to PubChem BioAssay AID248 (DTP/NCI, 2004):
“And” between values parts separate entries of the source, which are not always exact repeats. Equal entries are not always repeated. Toxic doses and inconclusive results are not listed.

Tested on: L1210 leukemia ip in BDF1 mice, survival T/C
Assay: NCI In Vivo Anticancer Drug Screen. Data for tumor model L1210 Leukemia (intraperitoneal) in B6D2F1 (BDF1) mice
Settings: endpoint: mean survival time, higher = longer survival
Procedure, shortened: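 Antitumor effect is assessed in tumor-bearing animals. Survival in the compound arm is compared with a vehicle-dosed control arm and expressed as their quotient.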

In the case of COC12C(COC(N)=O)C3=C(C(=O)C(C)=C(N)C3=O)N1CC1C2N1C (stereo not given), the T/C (dose: 0.37 mg/kg/injection, schedule: Q01DX009 (ip), vehicle: saline) was 106 % of control, the T/C (dose: 0.7 mg/kg/injection, schedule: Q## X040 (ip), vehicle: saline) was 106 % of control and the T/C (dose: 0.75 mg/kg/injection, schedule: Q01DX009 (ip), vehicle: saline) was 117 % of control. For the same compound, the T/C (dose: 1.25 mg/kg/injection, schedule: Q01DX Z (ip), vehicle: carboxymethylcellulose (CMC)) was 93 % of control, the T/C (dose: 1.4 mg/kg/injection, schedule: Q## X040 (ip), vehicle: saline) was 118 % of control and the T/C (dose: 1.5 mg/kg/injection, schedule: Q01DX009 (ip), vehicle: saline) was 121 % of control. The T/C (dose: 1.5 mg/kg/injection, schedule: Q## X003 (ip), vehicle: saline) was 117 % of control, the T/C (dose: 2.0 mg/kg/injection, schedule: Q01DX009 (ip), vehicle: Klucel (hydroxypropylcellulose) (HPC)) was 120 % of control and the T/C (dose: 2.0 mg/kg/injection, schedule: Q01DX009 (ip), vehicle: saline) was 165 % of control. For the same compound, the T/C (dose: 2.0 mg/kg/injection, schedule: Q01DX009 (sc), vehicle: saline) was 109 % of control, the T/C (dose: 2.0 mg/kg/injection, schedule: Q01DX015 (ip), vehicle: saline) was 115 % of control and 116 % of control and 121 % of control and the T/C (dose: 2.2 mg/kg/injection, schedule: Q01DX007 (ip), vehicle: carboxymethylcellulose (CMC)) was 123 % of control. The T/C (dose: 2.5 mg/kg/injection, schedule: Q01DX Z (ip), vehicle: carboxymethylcellulose (CMC)) was 97 % of control, the T/C (dose: 3.0 mg/kg/injection, schedule: Q01DX001 (ip), vehicle: saline) was 116 % of control and the T/C (dose: 3.0 mg/kg/injection, schedule: Q## X003 (ip), vehicle: saline) was 112 % of control. The T/C (dose: 3.0 mg/kg/injection, schedule: Q## X008 (ip), vehicle: saline) was 116 % of control, the T/C (dose: 3.0 mg/kg/injection, schedule: Q## X040 (ip), vehicle: saline) was 119 % of control and the T/C (dose: 3.35 mg/kg/injection, schedule: Q01DX015 (ip), vehicle: carboxymethylcellulose (CMC)) was 121 % of control. For the same compound, the T/C (dose: 3.5 mg/kg/injection, schedule: Q01DX015 (ip), vehicle: saline) was 123 % of control, the T/C (dose: 4.0 mg/kg/injection, schedule: Q## X024 (ip), vehicle: saline) was 103 % of control and the T/C (dose: 4.4 mg/kg/injection, schedule: Q## X004 (ip), vehicle: saline) was 114 % of control. For the same compound, the T/C (dose: 5.0 mg/kg/injection, schedule: Q01DX007 (ip), vehicle: carboxymethylcellulose (CMC)) was 156 % of control, the T/C (dose: 5.0 mg/kg/injection, schedule: Q01DX009 (oral), vehicle: saline) was 122 % of control and the T/C (dose: 5.0 mg/kg/injection, schedule: Q01DX015 (ip), vehicle: saline) was 122 % of control. For the same compound, the T/C (dose: 5.0 mg/kg/injection, schedule: Q01DX Z (ip), vehicle: carboxymethylcellulose (CMC)) was 123 % of control, the T/C (dose: 6.0 mg/kg/injection, schedule: Q01DX009 (ip), vehicle: saline) was 151 % of control and 164 % of control and the T/C (dose: 6.0 mg/kg/injection, schedule: Q01DX015 (ip), vehicle: carboxymethylcellulose (CMC)) was 156 % of control. For the same compound, the T/C (dose: 6.0 mg/kg/injection, schedule: Q## X008 (ip), vehicle: saline) was 112 % of control, the T/C (dose: 6.7 mg/kg/injection, schedule: Q## X004 (ip), vehicle: saline) was 121 % of control and the T/C (dose: 7.5 mg/kg/injection, schedule: Q01DX007 (ip), vehicle: carboxymethylcellulose (CMC)) was 158 % of control. The T/C (dose: 7.5 mg/kg/injection, schedule: Q01DX015 (ip), vehicle: carboxymethylcellulose (CMC)) was 163 % of control, the T/C (dose: 8.0 mg/kg/injection, schedule: Q01DX009 (ip), vehicle: saline) was 171 % of control and 176 % of control and the T/C (dose: 8.0 mg/kg/injection, schedule: Q01DX015 (ip), vehicle: saline) was 150 % of control and 153 % of control. The T/C (dose: 8.0 mg/kg/injection, schedule: Q## X008 (ip), vehicle: saline) was 104 % of control, the T/C (dose: 8.0 mg/kg/injection, schedule: Q## X016 (ip), vehicle: saline) was 96 % of control and the T/C (dose: 8.0 mg/kg/injection, schedule: Q## X024 (ip), vehicle: saline) was 111 % of control. For the same compound, the T/C (dose: 10.0 mg/kg/injection, schedule: Q01DX Z (ip), vehicle: carboxymethylcellulose (CMC)) was 151 % of control and 169 % of control, the T/C (dose: 11.25 mg/kg/injection, schedule: Q01DX007 (ip), vehicle: carboxymethylcellulose (CMC)) was 150 % of control and the T/C (dose: 12.0 mg/kg/injection, schedule: Q01DX009 (ip), vehicle: saline) was 153 % of control and 167 % of control. The T/C (dose: 12.0 mg/kg/injection, schedule: Q02DX008 (ip), vehicle: saline) was 154 % of control, the T/C (dose: 15.0 mg/kg/injection, schedule: Q01DX001 (ip), vehicle: saline) was 123 % of control and the T/C (dose: 15.0 mg/kg/injection, schedule: Q## X003 (ip), vehicle: saline) was 162 % of control. For the same compound, the T/C (dose: 15.0 mg/kg/injection, schedule: Q## X004 (ip), vehicle: saline) was 150 % of control, the T/C (dose: 16.0 mg/kg/injection, schedule: Q02DX008 (ip), vehicle: saline) was 158 % of control and the T/C (dose: 16.0 mg/kg/injection, schedule: Q## X008 (ip), vehicle: saline) was 112 % of control. The T/C (dose: 16.0 mg/kg/injection, schedule: Q## X016 (ip), vehicle: saline) was 115 % of control, the T/C (dose: 16.0 mg/kg/injection, schedule: Q## X040 (ip), vehicle: saline) was 167 % of control and the T/C (dose: 20.0 mg/kg/injection, schedule: Q01DX001 (ip), vehicle: carboxymethylcellulose (CMC)) was 165 % of control. For the same compound, the T/C (dose: 20.0 mg/kg/injection, schedule: Q01DX001 (sc), vehicle: saline) was 109 % of control, the T/C (dose: 20.0 mg/kg/injection, schedule: Q## X003 (ip), vehicle: saline) was 192 % of control and the T/C (dose: 20.0 mg/kg/injection, schedule: Q## X032 (ip), vehicle: saline) was 124 % of control. For the same compound, the T/C (dose: 22.5 mg/kg/injection, schedule: Q## X004 (ip), vehicle: saline) was 167 % of control, the T/C (dose: 24.0 mg/kg/injection, schedule: Q01DX001 (ip), vehicle: saline) was 154 % of control and the T/C (dose: 26.0 mg/kg/injection, schedule: Q01DX001 (ip), vehicle: carboxymethylcellulose (CMC)) was 151 % of control. For the same compound, the T/C (dose: 27.0 mg/kg/injection, schedule: Q01DX001 (oral), vehicle: saline) was 116 % of control, the T/C (dose: 30.0 mg/kg/injection, schedule: Q01DX001 (ip), vehicle: carboxymethylcellulose (CMC)) was 157 % of control and the T/C (dose: 30.0 mg/kg/injection, schedule: Q01DX001 (ip), vehicle: saline) was 150 % of control and 162 % of control. The T/C (dose: 30.0 mg/kg/injection, schedule: Q01DX001 (sc), vehicle: saline) was 121 % of control, the T/C (dose: 30.0 mg/kg/injection, schedule: Q01DX Z (ip), vehicle: carboxymethylcellulose (CMC)) was 95 % of control and the T/C (dose: 30.0 mg/kg/injection, schedule: Q## X003 (ip), vehicle: saline) was 182 % of control. The T/C (dose: 32.0 mg/kg/injection, schedule: Q02DX008 (ip), vehicle: saline) was 111 % of control, the T/C (dose: 32.0 mg/kg/injection, schedule: Q## X008 (ip), vehicle: saline) was 185 % of control and the T/C (dose: 32.0 mg/kg/injection, schedule: Q## X016 (ip), vehicle: saline) was 151 % of control. For the same compound, the T/C (dose: 32.0 mg/kg/injection, schedule: Q## X032 (ip), vehicle: saline) was 168 % of control and 169 % of control, the T/C (dose: 36.0 mg/kg/injection, schedule: Q01DX009 (oral), vehicle: saline) was 106 % of control and the T/C (dose: 40.0 mg/kg/injection, schedule: Q01DX001 (oral), vehicle: saline) was 118 % of control. The T/C (dose: 40.0 mg/kg/injection, schedule: Q## X032 (ip), vehicle: saline) was 166 % of control, the T/C (dose: 45.0 mg/kg/injection, schedule: Q01DX001 (ip), vehicle: carboxymethylcellulose (CMC)) was 157 % of control and the T/C (dose: 48.0 mg/kg/injection, schedule: Q01DX009 (oral), vehicle: saline) was 90 % of control. The T/C (dose: 48.0 mg/kg/injection, schedule: Q## X008 (ip), vehicle: saline) was 191 % of control, the T/C (dose: 60.0 mg/kg/injection, schedule: Q01DX001 (oral), vehicle: saline) was 124 % of control and the T/C (dose: 64.0 mg/kg/injection, schedule: Q## X008 (ip), vehicle: saline) was 204 % of control and 229 % of control. The T/C (dose: 64.0 mg/kg/injection, schedule: Q## X024 (ip), vehicle: saline) was 88 % of control, the T/C (dose: 90.0 mg/kg/injection, schedule: Q01DX001 (oral), vehicle: saline) was 124 % of control and the T/C (dose: 90.0 mg/kg/injection, schedule: Q01DX001 (sc), vehicle: saline) was 118 % of control. For the same compound, the T/C (dose: 96.0 mg/kg/injection, schedule: Q## X008 (ip), vehicle: saline) was 114 % of control, the T/C (dose: 100.0 mg/kg/injection, schedule: Q01DX001 (ip), vehicle: saline) was 117 % of control and the T/C (dose: 120.0 mg/kg/injection, schedule: Q01DX001 (ip), vehicle: saline) was 113 % of control and 87 % of control. For the same compound, the T/C (dose: 180.0 mg/kg/injection, schedule: Q01DX001 (oral), vehicle: saline) was 101 % of control and the T/C (dose: 360.0 mg/kg/injection, schedule: Q01DX001 (oral), vehicle: saline) was 92 % of control.
